Assay results reported in ChEMBL document CHEMBL4118214, “Structure activity relationships of anthranilic acid-based compounds on cellular and in vivo mitogen activated protein kinase-5 signaling pathways” (Bioorg Med Chem Lett, 2018).

These compounds were tested against T1, Dual specificity mitogen-activated protein kinase kinase 5 (Homo sapiens, UniProt Q13163) (assay: Activation of MEK5 in EGF-stimulated human MDA-MB-231 cells assessed as increase in pERK5 levels preincubated for 30 mins followed by EGF stimulation measured after 15 mins by Western blot analysis relative to control). Details: mda-mb-231, 0.25 h.
T1 sequence (Q13163 whole entry): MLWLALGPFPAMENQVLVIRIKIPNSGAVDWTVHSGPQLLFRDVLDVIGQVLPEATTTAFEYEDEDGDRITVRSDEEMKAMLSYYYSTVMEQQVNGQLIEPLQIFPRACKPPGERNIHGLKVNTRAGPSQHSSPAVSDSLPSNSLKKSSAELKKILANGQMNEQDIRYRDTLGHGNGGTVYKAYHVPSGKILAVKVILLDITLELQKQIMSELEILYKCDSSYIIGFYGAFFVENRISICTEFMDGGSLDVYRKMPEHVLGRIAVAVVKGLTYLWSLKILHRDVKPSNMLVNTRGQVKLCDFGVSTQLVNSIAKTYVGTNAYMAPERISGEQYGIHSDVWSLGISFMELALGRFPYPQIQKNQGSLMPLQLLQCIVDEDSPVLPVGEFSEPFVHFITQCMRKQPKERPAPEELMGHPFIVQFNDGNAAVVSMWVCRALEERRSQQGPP
Type: cell-based
Parameters: concentration or dose not given beside the values

| Activity | Structure (SMILES) |
| --- | --- |
| 20% | CCN(CC)C(=O)c1ccc(F)c(F)c1Nc1ccc(I)cc1F |
| 20% | O=C(O)c1ccc(F)c(F)c1Nc1ccccc1 |
| 20% | O=C(O)c1ccc(F)c(F)c1Nc1ccccc1F |
| 20% | CN(c1ccc(I)cc1F)c1c(C(N)=O)ccc(F)c1F |
| 20% | O=C(c1ccc(F)c(F)c1Nc1ccc(I)cc1F)N1CCNCC1 |

What follows are compounds tested against Dual specificity mitogen-activated protein kinase kinase; MEK1/2 (Homo sapiens, UniProt P36507+Q02750) (assay: Activation of MEK1/2 in EGF-stimulated human MDA-MB-231 cells assessed as increase in pERK1/2 levels preincubated for 30 mins followed by EGF stimulation measured after 15 mins by Western blot analysis relative to control). Details: mda-mb-231, 0.25 h.
Type: cell-based

| Activity | Structure (SMILES) |
| --- | --- |
| 20% | NC(=O)c1ccccc1Nc1ccccc1F |
| 20% | CN1CCN(C(=O)c2ccc(F)c(F)c2N(C)c2ccc(I)cc2F)CC1 |
| 20% | CN1CCN(C(=O)c2ccc(F)c(F)c2Nc2ccccc2)CC1 |

What follows are compounds tested on MDA-MB-231 (assay: Antitumor activity against human MDA-MB-231 cells xenografted in SCID/Beige mouse assessed as tumor volume at 25 mg/kg, qd measured on day 30 (reference value: 49.48 +/- 3.44 mm3)). Details: not given.
Type: functional

| Structure (SMILES) | Activity |
| --- | --- |
| NC(=O)c1ccc(F)c(F)c1Nc1ccc(I)cc1F | 29.1 mm3 |
